Test systems include HOP-62 NSCLC; EKVX NSCLC; SF-539 CNS; UACC-62 melanoma; NCI-H226 lung; SK-MEL-28 melanoma; HCT-15 colon; RPMI-8226 leukemia; ACHN renal; SN12C renal.
Common to all, as to assay: inhibition of tumour cell growth, NCI panel, 48 h

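Values below derive from 48-hour exposures of cells grown in 96-well plates, with endpoints linearly interpolated between the two concentrations bracketing the appropriate inhibition level. The concentration for 50% growth inhibition is given as GI50. At the TGI there is no net growth.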 A value given as a limit tells only on which side of the number the result lay.

Turning to `Cn1cc(-c2ccc(-c3ccc(C4=NC5(CC5)C(=O)N4C[C@@H]4CCN(C(=O)C5CC5)C4)cc3)cc2)cn1`, the GI50 is 25.2 µM in the assay on HOP-62 NSCLC; 12.9 µM with EKVX NSCLC; 10.7 µM in the assay on SF-539 CNS; 10.2 µM in the assay with UACC-62 melanoma; 16 µM in the assay with NCI-H226 lung; 20.3 µM with SK-MEL-28 melanoma. The GI50 was 2.71 µM in the assay with HCT-15 colon, 0.0883 µM in the assay on RPMI-8226 leukemia, 14.3 µM in the assay with ACHN renal and 17.5 µM with SN12C renal. Moreover, the TGI in the assay with HOP-62 NSCLC was above 100 µM; in the assay on EKVX NSCLC, 55.8 µM; with SF-539 CNS it was 32.1 µM; with UACC-62 melanoma, 34.5 µM; in the assay with NCI-H226 lung it was 51.2 µM; in the assay with SK-MEL-28 melanoma, 79 µM. For the same compound, the TGI was 43 µM in the assay on HCT-15 colon, 19.7 µM in the assay with RPMI-8226 leukemia, above 100 µM in the assay with ACHN renal and 77.3 µM in the assay with SN12C renal.
Take `Cc1cnc(C(=O)Nc2nc3ccc(S(=O)(=O)Nc4ccc(C5(C(F)(F)F)CC5)cc4)cc3[nH]2)cn1`: the GI50 is 0.622 µM in the assay on HOP-62 NSCLC; 0.701 µM in the assay with EKVX NSCLC; 0.314 µM in the assay with SF-539 CNS; 0.372 µM with UACC-62 melanoma; 0.566 µM in the assay on NCI-H226 lung; 1.19 µM with SK-MEL-28 melanoma. In addition, the GI50 in the assay with HCT-15 colon is 0.205 µM; in the assay on RPMI-8226 leukemia, 0.354 µM; with ACHN renal, 0.552 µM; in the assay on SN12C renal it was 0.519 µM. For the same compound, the TGI in the assay with HOP-62 NSCLC worked out at 6.71 µM; in the assay with EKVX NSCLC it was 9.34 µM; in the assay on SF-539 CNS, 3.3 µM; with UACC-62 melanoma it was 6.99 µM; in the assay with NCI-H226 lung, 6.34 µM; with SK-MEL-28 melanoma it was 12.2 µM. In addition, the TGI was determined as 5.09 µM in the assay on HCT-15 colon, 6.86 µM with RPMI-8226 leukemia, 14 µM in the assay with ACHN renal and 5.87 µM in the assay with SN12C renal.
Regarding `Cc1ncc(C(=O)Nc2ccc(CN3CCN(C)CC3)c(C(F)(F)F)c2)cc1C#Cc1cnc(N)cc1C#N`, the GI50 is 0.573 µM in the assay with HOP-62 NSCLC; 1.12 µM in the assay on EKVX NSCLC; 0.542 µM with SF-539 CNS; 0.0518 µM with UACC-62 melanoma; 0.263 µM in the assay on NCI-H226 lung; 0.0584 µM in the assay on SK-MEL-28 melanoma. The GI50 is 0.548 µM in the assay with HCT-15 colon, 0.338 µM in the assay on RPMI-8226 leukemia, 0.189 µM with ACHN renal and 0.305 µM with SN12C renal. Moreover, the TGI in the assay with HOP-62 NSCLC was 2.91 µM; with EKVX NSCLC it was 3.38 µM; in the assay with SF-539 CNS it was 2.93 µM; with UACC-62 melanoma, 0.645 µM; with NCI-H226 lung, 2.66 µM; in the assay with SK-MEL-28 melanoma, 1.69 µM. The TGI with HCT-15 colon came to 2.71 µM; with RPMI-8226 leukemia, 3.5 µM; with ACHN renal, 2 µM; in the assay on SN12C renal, 2.32 µM.
In the case of `COC(C)(C)C/C=C/C(C)=C/C=C/C(C)=C\C=C\C(C)=C\C=C\C=C(C)\C=C\C=C(C)\C=C\C=C(C)\C=C\CC(C)(C)OC`, the GI50 in the assay with HOP-62 NSCLC, in the assay with EKVX NSCLC, in the assay with SF-539 CNS, in the assay with UACC-62 melanoma, with NCI-H226 lung and with SK-MEL-28 melanoma was above 150 µg/mL throughout. Further, the GI50 in the assay with HCT-15 colon, with RPMI-8226 leukemia, with ACHN renal and in the assay on SN12C renal was above 150 µg/mL in each case. Moreover, the TGI with HOP-62 NSCLC, in the assay on EKVX NSCLC, in the assay on SF-539 CNS, in the assay on UACC-62 melanoma, with NCI-H226 lung and in the assay on SK-MEL-28 melanoma was above 150 µg/mL throughout. Also, the TGI in the assay on HCT-15 colon, with RPMI-8226 leukemia, in the assay on ACHN renal and in the assay with SN12C renal was above 150 µg/mL in each case.
Turning to `CN(C)CC/[N+]([O-])=C(/c1ccccc1)C12CC3CC(CC(C3)C1)C2`, the TGI with HOP-62 NSCLC was 28.9 µM; in the assay on EKVX NSCLC, 38.1 µM; in the assay with SF-539 CNS it was 30.8 µM; in the assay with UACC-62 melanoma it was 27.8 µM; in the assay with NCI-H226 lung, 27.5 µM; in the assay on SK-MEL-28 melanoma, 29.9 µM. Also, the TGI came to 38.8 µM in the assay on HCT-15 colon, 42.7 µM with RPMI-8226 leukemia, 29.8 µM with ACHN renal and 31.9 µM in the assay with SN12C renal.
Regarding `O=C1C(Cl)=C(NCc2ccco2)C(=O)c2ccccc21`, the GI50 was 17.1 µM with HOP-62 NSCLC; 37.3 µM in the assay on EKVX NSCLC; 20.9 µM with SF-539 CNS; 3.98 µM with UACC-62 melanoma; 18.8 µM with NCI-H226 lung; 6.89 µM with SK-MEL-28 melanoma. The GI50 with HCT-15 colon is 4.77 µM; with RPMI-8226 leukemia, 10.2 µM; in the assay on ACHN renal, 27 µM; in the assay on SN12C renal it was 25.9 µM. Besides, the TGI was 43.6 µM in the assay on HOP-62 NSCLC; above 100 µM in the assay with EKVX NSCLC; 54 µM with SF-539 CNS; 13.6 µM with UACC-62 melanoma; above 60.7 µM in the assay with NCI-H226 lung; 17.8 µM in the assay on SK-MEL-28 melanoma. The TGI was 56.5 µM with HCT-15 colon, above 100 µM in the assay with RPMI-8226 leukemia, above 100 µM with ACHN renal and above 100 µM in the assay on SN12C renal.
For the compound `Cc1cc2c(C)nn(Cc3ccc(Cl)cc3)c2c(C#N)c1C`, the TGI with HOP-62 NSCLC, with EKVX NSCLC, in the assay with SF-539 CNS, with UACC-62 melanoma, with NCI-H226 lung and in the assay on SK-MEL-28 melanoma was above 100 µM in each case. Besides, the TGI in the assay with HCT-15 colon, in the assay with RPMI-8226 leukemia, in the assay on ACHN renal and in the assay on SN12C renal was above 100 µM in each case.
For the compound `O=Cc1c(O)c(C(=O)Nc2ccc3[nH]c(=O)[nH]c3c2)cc2ccccc12`, the TGI in the assay on HOP-62 NSCLC, in the assay with EKVX NSCLC, in the assay on SF-539 CNS, in the assay on UACC-62 melanoma, in the assay on NCI-H226 lung and with SK-MEL-28 melanoma was above 100 µM throughout. The TGI in the assay on HCT-15 colon, in the assay with RPMI-8226 leukemia, in the assay on ACHN renal and in the assay on SN12C renal was above 100 µM in each case.

For the origin of these results see PubChem BioAssay (NCI).
